Assay results reported in patent US20080319042A1, “Compositions and methods for treatment of liver disease” (priority 2007, published 2008).
Several values for one entry are separate records, joined by “and”; a condition that tells them apart may be missing. Identical values can stand only once.

Experiments:
HCV/HIV pseudovirions = experiment: microbe, parasite or virus in culture; assay type: cell-based, hepatitis C virus
HCV JFH1 = HCV JFH1 infectivity assay (JFH1 Foci Reduction Assay); assay type: cell-based, hepatitis C virus; details: virus preincubated with compound; Huh 7 cells; 48 hr post infection; RD8, RD16, RD17, RD18 as glucosidase hydrolysis products
HBsAg = experiment: Anti-HBSAg Assay (Procedure B), HBsAg; assay type: cell-based, hepatitis B virus
Description: The HBV-producing human hepatoblastoma cell line, Hep G2 2.2.15 is maintained in DMEM supplemented with 10% fetal bovine serum (FBS), 2 mM glutamine, 100 units/ml penicillin, 100 μg/ml streptomycin at 37° C. under 5% CO2 in air.
Samples were dissolved in DMSO at the concentration of 20 mg/mL, then further diluted with DMEM medium to the appropriate concentration.
Hep G2 2.2.15 cells (120 μl) were seeded onto 96-well plates at a concentration of 2×10^5 cells/mL. The cells incubated for 72 h in the medium without G418, after which the test samples (120 μl) were added. Five 3-fold serial dilutions of samples were tested. PBS and 3TC (lamivudine) were included as the negative and positive controls, respectively. The treated cells were incubated at 37° C. for 9 days; with the medium with sample being changed each 3 days, after which the culture supernatant was removed for analysis of both the hepatitis B surface antigen (HBsAg) production and hepatitis B DNA expression.
The HBsAg released into the culture medium in the presence or absence of test material was assayed using the kit manufactured by Shanghai Siic Kehua Biotech Co., Ltd (Shanghai, China). This enzyme immunoassay is based on the capture of HBsAg on monoclonal antibody-coated plates. Four- and twelve-fold dilutions of all culture supernatants collected were assayed in triplicate wells of the kit plate. The percentage inhibition of HBsAg secretion in the presence of the compound was calculated against the negative control (PBS). The IC50 values, the dose that inhibited viruses by 50%, were calculated using non-linear regression analysis (percent survival versus concentration).

HBeAg = experiment: Anti-HBSAg Assay (Procedure B), HBeAg; assay type: cell-based, hepatitis B virus
HBV DNA = experiment: Anti-HBV DNA Assay; assay type: cell-based, hepatitis B virus; details: for HBV DNA copies/ml: replicates, listed as HP-S4
[1] = Enzyme Hydrolysis Processing Time 0.5 hours
[2] = Enzyme Hydrolysis Processing Time 4.0 hours

Structure (SMILES): CC1C(O)CC2C(C(=O)O)=COC(O)C21 (mixture of isomers) [RD-17]
- HCV Inhibition at 20 μg/mL (HCV/HIV pseudovirions; [1]): 39.4
- HCV Inhibition at 20 μg/mL (HCV/HIV pseudovirions; [2]): 52.5
- Estimated IC50 (inhibition of HCV JFH1 infectivity) (HCV JFH1): 17 µg/mL

Structure (SMILES): COC(=O)C1=COC(O)C2C1C(O)CC2(C)O (mixture of isomers) [RD-16]
- HCV Inhibition at 20 μg/mL (HCV/HIV pseudovirions; [1]): 49.0
- HCV Inhibition at 20 μg/mL (HCV/HIV pseudovirions; [2]): 61.2
- Estimated IC50 (inhibition of HCV JFH1 infectivity) (HCV JFH1): 14 µg/mL

Structure (SMILES): COC(=O)C1=COC(O)C2C1CC(O)C2C (mixture of isomers) [RD-8]
- HCV Inhibition at 20 μg/mL (HCV/HIV pseudovirions; [1]): 24.8
- HCV Inhibition at 20 μg/mL (HCV/HIV pseudovirions; [2]): 41.4
- Estimated IC50 (inhibition of HCV JFH1 infectivity) (HCV JFH1): 15 µg/mL

Structure (SMILES): OCC1=C[C@@H](O)[C@@H]2C=CO[C@@H](O)[C@H]12 [aucubin aglycone]
- HBsAg Ave. (HBsAg; 6.25 μg/mL): 1.407
- HBsAg Inhibition % (HBsAg; 6.25 μg/mL): 0%
- HBsAg OD1 (HBsAg; 6.25 μg/mL): 1.392
- HBsAg OD2 (HBsAg; 6.25 μg/mL): 1.375
- HBsAg OD3 (HBsAg; 6.25 μg/mL): 1.454
- HBsAg Ave. (HBsAg; 12.5 μg/mL): 1.323
- HBsAg Inhibition % (HBsAg; 12.5 μg/mL): 4.5%
- HBsAg OD1 (HBsAg; 12.5 μg/mL): 1.370
- HBsAg OD2 (HBsAg; 12.5 μg/mL): 1.372
- HBsAg OD3 (HBsAg; 12.5 μg/mL): 1.227
- HBsAg Ave. (HBsAg; 25 μg/mL): 1.300
- HBsAg Inhibition % (HBsAg; 25 μg/mL): 6.1%
- HBsAg OD1 (HBsAg; 25 μg/mL): 1.608
- HBsAg OD2 (HBsAg; 25 μg/mL): 1.116
- HBsAg OD3 (HBsAg; 25 μg/mL): 1.175
- HBsAg Ave. (HBsAg; 50 μg/mL): 0.845
- HBsAg Inhibition % (HBsAg; 50 μg/mL): 37.9%
- HBsAg OD1 (HBsAg; 50 μg/mL): 0.935
- HBsAg OD2 (HBsAg; 50 μg/mL): 0.926
- HBsAg OD3 (HBsAg; 50 μg/mL): 0.675
- HBsAg Ave. (HBsAg; 100 μg/mL): 0.656
- HBsAg Inhibition % (HBsAg; 100 μg/mL): 52.6%
- HBsAg OD1 (HBsAg; 100 μg/mL): 0.667
- HBsAg OD2 (HBsAg; 100 μg/mL): 0.641
- HBsAg OD3 (HBsAg; 100 μg/mL): 0.66
- HBeAg Ave (HBeAg; 6.25 μg/mL): 1.299
- HBeAg Inhibition % (HBeAg; 6.25 μg/mL): 0%
- HBeAg OD1 (HBeAg; 6.25 μg/mL): 1.327
- HBeAg OD2 (HBeAg; 6.25 μg/mL): 1.265
- HBeAg OD3 (HBeAg; 6.25 μg/mL): 1.304
- HBeAg Ave (HBeAg; 12.5 μg/mL): 1.393
- HBeAg Inhibition % (HBeAg; 12.5 μg/mL): 0%
- HBeAg OD1 (HBeAg; 12.5 μg/mL): 1.561
- HBeAg OD2 (HBeAg; 12.5 μg/mL): 1.316
- HBeAg OD3 (HBeAg; 12.5 μg/mL): 1.303
- HBeAg Ave (HBeAg; 25 μg/mL): 1.334
- HBeAg Inhibition % (HBeAg; 25 μg/mL): 0%
- HBeAg OD1 (HBeAg; 25 μg/mL): 1.375
- HBeAg OD2 (HBeAg; 25 μg/mL): 1.335
- HBeAg OD3 (HBeAg; 25 μg/mL): 1.293
- HBeAg Ave (HBeAg; 50 μg/mL): 1.226
- HBeAg Inhibition % (HBeAg; 50 μg/mL): 0%
- HBeAg OD1 (HBeAg; 50 μg/mL): 1.295
- HBeAg OD2 (HBeAg; 50 μg/mL): 1.259
- HBeAg OD3 (HBeAg; 50 μg/mL): 1.123
- HBeAg Ave (HBeAg; 100 μg/mL): 1.329
- HBeAg Inhibition % (HBeAg; 100 μg/mL): 0%
- HBeAg OD1 (HBeAg; 100 μg/mL): 1.162
- HBeAg OD2 (HBeAg; 100 μg/mL): 1.391
- HBeAg OD3 (HBeAg; 100 μg/mL): 1.435
- HBV DNA Average (HBV DNA; 6.25 μg/ml): 1.10 × 10^6 copies/ml
- HBV DNA Inhibit (HBV DNA; 6.25 μg/ml): 5.99%
- HBV DNA copies/ml (HBV DNA; 6.25 μg/ml): 1.26E+06 copies/ml and 9.83E+05 copies/ml and 1.06E+06 copies/ml
- HBV DNA Average (HBV DNA; 12.5 μg/ml): 9.52 × 10^5 copies/ml
- HBV DNA Inhibit (HBV DNA; 12.5 μg/ml): 8.60%
- HBV DNA copies/ml (HBV DNA; 12.5 μg/ml): 1.16E+06 copies/ml and 9.17E+05 copies/ml and 7.78E+05 copies/ml
- HBV DNA Average (HBV DNA; 25 μg/ml): 1.01 × 10^6 copies/ml
- HBV DNA Inhibit (HBV DNA; 25 μg/ml): 13.70%
- HBV DNA copies/ml (HBV DNA; 25 μg/ml): 1.02E+06 copies/ml and 9.74E+05 copies/ml and 1.04E+06 copies/ml
- HBV DNA Average (HBV DNA; 50 μg/ml): 9.79 × 10^5 copies/ml
- HBV DNA Inhibit (HBV DNA; 50 μg/ml): 16.30%
- HBV DNA copies/ml (HBV DNA; 50 μg/ml): 1.05E+06 copies/ml and 9.27E+05 copies/ml and 9.59E+05 copies/ml
- HBV DNA Average (HBV DNA; 100 μg/ml): 8.43 × 10^5 copies/ml
- HBV DNA Inhibit (HBV DNA; 100 μg/ml): 27.90%
- HBV DNA copies/ml (HBV DNA; 100 μg/ml): 7.90E+05 copies/ml and 7.94E+05 copies/ml and 9.44E+05 copies/ml
- inhibition of HCV/HIV entry (HCV/HIV pseudovirions; 100 μg/mL, FIG. 1): approximately 80%
